Results as given in ChEMBL document CHEMBL1201862, “PubChem BioAssay data set” (2004).
Active and inactive are the calls of the source.

How the values were obtained:
[1] = biological target: Cytochrome P450 2C19 (Homo sapiens, UniProt P33261); test: qHTS Assay for Inhibitors and Substrates of Cytochrome P450 2C19. [Related pubchem assays: 410 ]; format: ADME; conditions: read-out: Potency
[2] = biological target: Cytochrome P450 2D6 (Homo sapiens, UniProt P10635); test: qHTS Assay for Inhibitors and Substrates of Cytochrome P450 2D6. [Related pubchem assays: 410 ]; format: ADME; conditions: read-out: Potency
[3] = biological target: T1, Heat shock factor protein 1 (Mus musculus, UniProt P38532); test: enhancement of HSF1-driven luciferase signal – cell-based, NIH3T3, luminescence, dose retest, confirmation (AID 435004); format: functional;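 further: stress induced by proteasome inhibitor MG132 added 30 min after compound; luciferase reporter driven by HSF1 response element in NIH3T3 cells; actives raise luminescence as potentiators of the MG132 stress response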
T1 sequence (P38532 whole entry): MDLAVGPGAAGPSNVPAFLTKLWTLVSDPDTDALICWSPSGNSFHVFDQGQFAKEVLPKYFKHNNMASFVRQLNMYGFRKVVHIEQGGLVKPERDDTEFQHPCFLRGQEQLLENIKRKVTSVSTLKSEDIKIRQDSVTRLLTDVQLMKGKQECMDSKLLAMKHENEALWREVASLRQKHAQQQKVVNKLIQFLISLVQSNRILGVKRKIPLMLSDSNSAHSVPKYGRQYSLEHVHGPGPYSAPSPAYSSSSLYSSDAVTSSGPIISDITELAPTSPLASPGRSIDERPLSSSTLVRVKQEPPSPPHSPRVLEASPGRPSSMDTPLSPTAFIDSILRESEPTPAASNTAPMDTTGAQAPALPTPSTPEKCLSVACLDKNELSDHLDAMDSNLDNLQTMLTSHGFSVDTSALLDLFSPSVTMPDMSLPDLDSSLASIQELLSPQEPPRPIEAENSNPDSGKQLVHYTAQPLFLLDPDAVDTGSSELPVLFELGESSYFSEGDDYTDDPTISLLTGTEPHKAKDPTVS

[4] = biological target: T2, Sphingosine 1-phosphate receptor 4 (Homo sapiens, UniProt O95977); test: Fluorescence dose response cell-based high throughput screening assay for antagonists of the Sphingosine 1-Phosphate Receptor 4 (S1P4). [Related pubchem assays: 1524 (Confirmation in triplicates.), 1510 (Primary screen.)]; format: functional
T2 sequence (O95977 whole entry): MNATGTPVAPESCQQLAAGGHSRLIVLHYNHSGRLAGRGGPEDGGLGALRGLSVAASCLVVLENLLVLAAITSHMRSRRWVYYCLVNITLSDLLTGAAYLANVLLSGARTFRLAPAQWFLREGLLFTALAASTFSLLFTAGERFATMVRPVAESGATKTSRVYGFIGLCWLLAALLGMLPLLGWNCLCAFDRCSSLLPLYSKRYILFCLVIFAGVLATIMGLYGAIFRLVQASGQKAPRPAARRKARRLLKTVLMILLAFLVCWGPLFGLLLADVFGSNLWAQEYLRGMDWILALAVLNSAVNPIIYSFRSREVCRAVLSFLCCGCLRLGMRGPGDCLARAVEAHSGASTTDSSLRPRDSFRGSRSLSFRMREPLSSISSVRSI

[5] = biological target: T3, Protein RecA (Mycobacterium tuberculosis, UniProt P9WHJ3); test: Fluorescence Cell-Free Homogeneous Dose Retest to Identify Inhibitors of RecA-Intein Splicing Activity. [Related pubchem assays (depositor defined):AID2097, AID2223, AID489010, AID492950]; format: functional
T3 sequence (P9WHJ3 whole entry): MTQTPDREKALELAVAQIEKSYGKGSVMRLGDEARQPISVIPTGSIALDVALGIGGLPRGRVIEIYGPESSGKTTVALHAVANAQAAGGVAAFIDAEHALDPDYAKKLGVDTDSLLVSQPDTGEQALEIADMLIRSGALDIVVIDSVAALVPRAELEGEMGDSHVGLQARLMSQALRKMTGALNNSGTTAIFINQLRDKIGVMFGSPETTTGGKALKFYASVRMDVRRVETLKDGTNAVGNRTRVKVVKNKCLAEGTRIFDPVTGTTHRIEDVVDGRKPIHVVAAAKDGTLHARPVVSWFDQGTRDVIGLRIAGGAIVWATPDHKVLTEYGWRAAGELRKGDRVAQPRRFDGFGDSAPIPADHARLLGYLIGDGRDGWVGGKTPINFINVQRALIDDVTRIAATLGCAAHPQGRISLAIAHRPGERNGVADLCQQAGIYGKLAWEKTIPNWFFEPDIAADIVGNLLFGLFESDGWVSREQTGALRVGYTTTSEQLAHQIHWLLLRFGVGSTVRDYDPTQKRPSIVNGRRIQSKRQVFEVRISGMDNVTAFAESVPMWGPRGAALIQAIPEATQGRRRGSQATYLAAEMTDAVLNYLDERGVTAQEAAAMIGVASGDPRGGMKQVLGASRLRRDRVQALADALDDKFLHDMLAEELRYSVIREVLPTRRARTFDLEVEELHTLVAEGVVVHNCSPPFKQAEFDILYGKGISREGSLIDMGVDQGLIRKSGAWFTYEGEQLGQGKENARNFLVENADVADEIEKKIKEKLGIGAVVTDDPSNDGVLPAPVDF

[6] = viability of HCT116 lacking mutant beta-catenin – cell-based, human colon tumor, dose response (AID 1045); format: functional;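 further: HCT116 colon tumor cells with beta catenin knocked out; cells exposed to compound for 60 hours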
[7] = fluconazole-exposed Candida albicans growth modulators – fluorescence, retest, confirmation (AID 2467); format: functional, cell-based
[8] = biological target: T2, Sphingosine 1-phosphate receptor 4; test: Late stage fluorescence dose response cell-based screening assay for antagonists of the Sphingosine 1-Phosphate Receptor 4 (S1P4). [Related pubchem assays: 1524 (Confirmation screen (S1P4 antagonists).), 1510 (Primary screen (S1P4 antagonists).), 1853 (Summary AID (S1P4 antagonists).), 1692 (Dose response screen (S1P4 antagonists).)]; format: functional
[9] = biological target: T4, Replicative DNA helicase DnaB (Mycobacterium tuberculosis, UniProt P9WMR3); test: DnaB intein splicing inhibitors, dose response, biochemical, cell-free fluorescence (AID 449749); format: functional
T4 sequence (P9WMR3 whole entry): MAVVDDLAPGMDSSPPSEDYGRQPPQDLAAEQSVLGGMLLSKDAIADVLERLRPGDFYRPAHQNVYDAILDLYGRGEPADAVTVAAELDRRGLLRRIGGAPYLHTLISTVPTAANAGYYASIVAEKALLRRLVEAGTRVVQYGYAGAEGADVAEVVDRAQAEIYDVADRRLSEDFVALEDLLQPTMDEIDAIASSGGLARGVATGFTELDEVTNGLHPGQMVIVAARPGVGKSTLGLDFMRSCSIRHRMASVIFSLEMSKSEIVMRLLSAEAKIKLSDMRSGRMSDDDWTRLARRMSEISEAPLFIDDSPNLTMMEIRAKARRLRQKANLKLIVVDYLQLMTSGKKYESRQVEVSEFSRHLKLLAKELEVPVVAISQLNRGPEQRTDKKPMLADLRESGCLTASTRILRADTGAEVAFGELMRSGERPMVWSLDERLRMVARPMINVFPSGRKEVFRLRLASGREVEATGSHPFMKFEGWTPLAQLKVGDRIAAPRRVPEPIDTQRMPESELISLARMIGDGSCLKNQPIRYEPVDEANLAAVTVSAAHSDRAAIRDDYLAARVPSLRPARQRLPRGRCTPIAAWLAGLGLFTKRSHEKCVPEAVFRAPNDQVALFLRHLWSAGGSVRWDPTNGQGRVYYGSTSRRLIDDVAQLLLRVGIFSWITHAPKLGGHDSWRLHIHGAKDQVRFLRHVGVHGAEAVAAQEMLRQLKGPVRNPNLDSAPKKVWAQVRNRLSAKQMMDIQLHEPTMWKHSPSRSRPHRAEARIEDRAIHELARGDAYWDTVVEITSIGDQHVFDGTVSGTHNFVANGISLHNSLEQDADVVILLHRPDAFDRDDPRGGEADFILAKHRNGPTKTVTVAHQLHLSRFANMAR

[10] = viability of PTEN-deleted HCT116 cells – cell-based, HCT116 PTEN knockout, dose response (AID 1047); format: functional;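 further: HCT116 colon tumor cells with PTEN knocked out; cells exposed to compound for 60 hours before readout; potency for loss of cell viability measured by luminescence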
[11] = biological target: Sphingosine 1-phosphate receptor 1 (Homo sapiens, UniProt P21453); format: functional;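 further: Tango beta-arrestin reporter U2OS cells stimulated with S1P near its EC80; inhibitor potency meaning antagonism of receptor activation by the natural agonist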
[12] = NIH-3T3 fibroblast cytotoxicity, dose response, cytotoxicity control, cell-based, fluorescence, Alamar Blue, secondary assay (AID 2327); format: functional;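 further: NIH-3T3 mouse fibroblasts cultured with fluconazole at 8 µg/mL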
[13] = biological target: Photoreceptor-specific nuclear receptor (Homo sapiens, UniProt Q9Y5X4); test: ligands suppressing NR2E3 nuclear receptor activity – biochemical, TR-FRET, dose response (AID 463256); format: functional
[14] = biological target: Peroxisome proliferator-activated receptor gamma/Nuclear receptor corepressor 2 (Homo sapiens, UniProt P37231+Q9Y618); test: Counterscreen for NR2E3 inverse agonists: TR-FRET-based biochemical high throughput dose response assay to identify inverse agonists of the interaction between peroxisome proliferator-activated receptor gamma (PPARg) and nuclear receptor co-repressor 2 (NCOR2).; format: functional
Sequence of Peroxisome proliferator-activated receptor gamma/Nuclear receptor corepressor 2 (P37231 whole entry): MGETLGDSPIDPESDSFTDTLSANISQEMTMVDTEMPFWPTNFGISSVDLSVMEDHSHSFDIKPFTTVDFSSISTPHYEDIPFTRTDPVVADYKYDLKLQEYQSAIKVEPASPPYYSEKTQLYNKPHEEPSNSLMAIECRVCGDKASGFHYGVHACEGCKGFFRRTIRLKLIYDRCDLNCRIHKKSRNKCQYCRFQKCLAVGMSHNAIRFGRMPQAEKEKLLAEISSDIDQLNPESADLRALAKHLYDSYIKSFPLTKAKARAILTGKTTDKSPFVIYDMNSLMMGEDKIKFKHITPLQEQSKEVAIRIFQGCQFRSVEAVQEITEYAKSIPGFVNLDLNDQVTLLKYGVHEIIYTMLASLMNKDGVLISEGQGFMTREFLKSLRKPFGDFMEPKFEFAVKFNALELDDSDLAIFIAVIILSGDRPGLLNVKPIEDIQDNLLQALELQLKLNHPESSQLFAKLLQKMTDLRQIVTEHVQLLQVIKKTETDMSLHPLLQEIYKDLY
Sequence of Peroxisome proliferator-activated receptor gamma/Nuclear receptor corepressor 2 (Q9Y618 whole entry): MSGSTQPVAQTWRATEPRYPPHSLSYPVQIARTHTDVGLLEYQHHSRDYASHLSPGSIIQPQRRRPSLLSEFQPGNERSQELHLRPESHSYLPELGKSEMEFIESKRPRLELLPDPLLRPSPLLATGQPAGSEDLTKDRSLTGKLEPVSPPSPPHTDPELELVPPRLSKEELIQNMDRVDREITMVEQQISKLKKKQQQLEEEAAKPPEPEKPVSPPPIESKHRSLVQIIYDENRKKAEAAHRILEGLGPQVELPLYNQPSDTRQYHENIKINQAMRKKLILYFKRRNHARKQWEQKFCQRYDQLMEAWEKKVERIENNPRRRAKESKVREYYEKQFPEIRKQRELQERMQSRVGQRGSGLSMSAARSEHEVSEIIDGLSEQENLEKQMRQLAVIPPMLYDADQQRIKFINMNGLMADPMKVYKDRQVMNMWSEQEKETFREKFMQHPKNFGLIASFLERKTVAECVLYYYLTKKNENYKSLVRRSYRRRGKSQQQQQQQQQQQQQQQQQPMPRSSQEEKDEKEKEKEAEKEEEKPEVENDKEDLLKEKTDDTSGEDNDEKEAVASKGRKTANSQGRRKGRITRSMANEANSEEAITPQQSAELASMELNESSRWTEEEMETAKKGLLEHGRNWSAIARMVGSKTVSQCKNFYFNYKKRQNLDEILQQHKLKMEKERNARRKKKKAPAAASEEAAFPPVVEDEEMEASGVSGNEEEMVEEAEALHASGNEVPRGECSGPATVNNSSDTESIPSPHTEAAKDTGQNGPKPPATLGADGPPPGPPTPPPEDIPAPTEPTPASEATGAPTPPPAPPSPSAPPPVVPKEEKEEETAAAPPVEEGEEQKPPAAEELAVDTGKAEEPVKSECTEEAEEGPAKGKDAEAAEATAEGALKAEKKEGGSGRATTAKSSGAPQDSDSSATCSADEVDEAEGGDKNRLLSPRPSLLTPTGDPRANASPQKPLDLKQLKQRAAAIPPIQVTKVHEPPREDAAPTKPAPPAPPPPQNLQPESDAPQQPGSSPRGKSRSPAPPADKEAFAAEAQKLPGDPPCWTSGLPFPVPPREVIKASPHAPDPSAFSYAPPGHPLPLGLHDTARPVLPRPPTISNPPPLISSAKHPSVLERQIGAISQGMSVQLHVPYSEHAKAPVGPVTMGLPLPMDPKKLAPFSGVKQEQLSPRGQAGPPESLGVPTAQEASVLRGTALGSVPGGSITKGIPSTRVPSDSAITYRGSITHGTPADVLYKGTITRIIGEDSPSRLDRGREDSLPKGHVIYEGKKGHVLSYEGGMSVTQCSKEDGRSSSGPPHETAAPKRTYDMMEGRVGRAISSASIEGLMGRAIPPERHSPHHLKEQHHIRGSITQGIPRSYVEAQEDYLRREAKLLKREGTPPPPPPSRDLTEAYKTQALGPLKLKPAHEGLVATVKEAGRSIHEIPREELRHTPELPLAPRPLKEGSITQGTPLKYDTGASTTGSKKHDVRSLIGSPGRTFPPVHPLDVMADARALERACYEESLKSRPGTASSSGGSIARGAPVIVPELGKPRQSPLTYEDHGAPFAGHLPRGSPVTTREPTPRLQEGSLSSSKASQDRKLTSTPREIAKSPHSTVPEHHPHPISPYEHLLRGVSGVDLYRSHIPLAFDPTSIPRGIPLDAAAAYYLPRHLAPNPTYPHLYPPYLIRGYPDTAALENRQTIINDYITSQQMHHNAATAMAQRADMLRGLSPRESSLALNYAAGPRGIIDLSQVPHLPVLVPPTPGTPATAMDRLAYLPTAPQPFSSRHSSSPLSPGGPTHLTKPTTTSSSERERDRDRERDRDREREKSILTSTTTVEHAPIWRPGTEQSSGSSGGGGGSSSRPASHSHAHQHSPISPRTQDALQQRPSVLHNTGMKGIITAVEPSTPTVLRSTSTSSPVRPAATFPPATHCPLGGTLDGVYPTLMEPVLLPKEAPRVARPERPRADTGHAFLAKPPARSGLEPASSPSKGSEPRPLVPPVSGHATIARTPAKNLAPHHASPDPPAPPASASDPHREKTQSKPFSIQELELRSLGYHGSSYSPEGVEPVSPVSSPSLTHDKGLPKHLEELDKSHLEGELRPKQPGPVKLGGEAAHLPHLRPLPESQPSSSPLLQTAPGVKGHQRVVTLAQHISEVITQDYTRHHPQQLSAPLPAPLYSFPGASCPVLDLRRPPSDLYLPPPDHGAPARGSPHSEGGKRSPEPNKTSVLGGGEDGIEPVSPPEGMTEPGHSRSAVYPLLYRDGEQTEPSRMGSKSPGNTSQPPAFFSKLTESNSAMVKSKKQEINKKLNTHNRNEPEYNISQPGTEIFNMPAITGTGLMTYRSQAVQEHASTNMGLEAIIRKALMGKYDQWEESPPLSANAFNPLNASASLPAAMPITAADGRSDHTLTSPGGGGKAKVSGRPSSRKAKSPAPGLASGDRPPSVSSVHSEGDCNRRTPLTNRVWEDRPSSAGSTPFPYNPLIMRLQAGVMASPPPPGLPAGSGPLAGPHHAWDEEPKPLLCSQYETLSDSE

Sequence of Sphingosine 1-phosphate receptor 1 (P21453 whole entry): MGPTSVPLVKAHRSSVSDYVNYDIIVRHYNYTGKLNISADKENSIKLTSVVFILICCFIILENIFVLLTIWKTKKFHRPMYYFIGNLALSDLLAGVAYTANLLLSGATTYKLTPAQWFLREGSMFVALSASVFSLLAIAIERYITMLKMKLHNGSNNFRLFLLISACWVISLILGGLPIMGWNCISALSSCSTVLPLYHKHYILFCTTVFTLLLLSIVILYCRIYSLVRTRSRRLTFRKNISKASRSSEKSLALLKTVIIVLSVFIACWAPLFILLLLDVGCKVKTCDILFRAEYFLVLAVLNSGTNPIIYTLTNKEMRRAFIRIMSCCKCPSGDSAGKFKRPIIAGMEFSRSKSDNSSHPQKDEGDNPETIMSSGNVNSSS
Sequence of Photoreceptor-specific nuclear receptor (Q9Y5X4 whole entry): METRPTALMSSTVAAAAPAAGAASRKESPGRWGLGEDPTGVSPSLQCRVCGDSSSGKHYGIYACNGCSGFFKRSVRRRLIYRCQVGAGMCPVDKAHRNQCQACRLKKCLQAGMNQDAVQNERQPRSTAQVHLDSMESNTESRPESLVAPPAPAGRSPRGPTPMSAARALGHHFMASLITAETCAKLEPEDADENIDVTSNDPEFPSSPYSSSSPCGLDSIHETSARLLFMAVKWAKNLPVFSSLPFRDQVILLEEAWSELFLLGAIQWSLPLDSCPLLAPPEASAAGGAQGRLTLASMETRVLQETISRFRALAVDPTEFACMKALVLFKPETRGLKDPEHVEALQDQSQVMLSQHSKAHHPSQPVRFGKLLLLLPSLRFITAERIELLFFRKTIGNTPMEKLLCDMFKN
Sequence of Cytochrome P450 2C19 (P33261 whole entry): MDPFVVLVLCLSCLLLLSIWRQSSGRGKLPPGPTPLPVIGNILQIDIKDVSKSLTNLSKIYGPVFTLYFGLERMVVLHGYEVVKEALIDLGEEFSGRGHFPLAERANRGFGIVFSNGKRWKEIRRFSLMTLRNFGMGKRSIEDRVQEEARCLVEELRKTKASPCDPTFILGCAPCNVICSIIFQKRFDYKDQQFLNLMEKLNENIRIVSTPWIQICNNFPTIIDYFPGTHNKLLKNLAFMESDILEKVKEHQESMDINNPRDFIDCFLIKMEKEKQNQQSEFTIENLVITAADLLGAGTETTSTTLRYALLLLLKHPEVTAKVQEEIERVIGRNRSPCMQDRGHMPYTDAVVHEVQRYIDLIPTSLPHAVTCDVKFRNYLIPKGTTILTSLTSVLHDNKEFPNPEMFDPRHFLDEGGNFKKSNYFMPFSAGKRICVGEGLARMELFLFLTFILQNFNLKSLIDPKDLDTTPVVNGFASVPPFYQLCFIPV
Sequence of Cytochrome P450 2D6 (P10635 whole entry): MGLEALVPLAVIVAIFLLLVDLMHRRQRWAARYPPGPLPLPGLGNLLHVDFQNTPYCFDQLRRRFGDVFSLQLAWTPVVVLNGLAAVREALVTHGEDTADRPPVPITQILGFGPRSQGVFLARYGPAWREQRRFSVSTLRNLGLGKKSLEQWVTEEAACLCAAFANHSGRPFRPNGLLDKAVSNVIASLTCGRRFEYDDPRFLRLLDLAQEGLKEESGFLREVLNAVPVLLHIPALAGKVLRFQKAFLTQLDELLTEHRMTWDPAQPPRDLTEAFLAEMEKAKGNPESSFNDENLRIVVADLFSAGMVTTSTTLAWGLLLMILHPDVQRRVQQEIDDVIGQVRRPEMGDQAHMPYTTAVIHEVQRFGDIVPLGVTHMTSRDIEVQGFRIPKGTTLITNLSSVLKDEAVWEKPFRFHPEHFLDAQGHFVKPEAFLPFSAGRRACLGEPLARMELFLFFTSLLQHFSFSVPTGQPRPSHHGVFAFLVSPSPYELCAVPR

## COC(=O)NC(/C(C(=O)OC)=C(\C)NCc1ccccc1)c1cccc(C)c1 (centres undefined)
[1]
  AC50: 6.31 µM (inconclusive)
[2]
  AC50: 7.94 µM (inconclusive)

## O=S(=O)(c1ccc(Cl)c(Cl)c1)c1snnc1-c1ccccc1
[3]
  EC50: 9.7 µM (active)
[4]
  IC50: 524 nM (active)
[5]
  EC50: 504 nM (active)
[6]
  EC50: 83 nM (active)
[7]
  EC50: > 38 µM (not active)
[8]
  IC50: 10.8 µM (not active)
[9]
  AC50: 2.89 µM (active)
[10]
  EC50: 117 nM (active)
[11]
  IC50: 4.29 µM (active)
[12]
  EC50: 18.3 µM (active)

## NC(=O)c1ccc(NC(=O)CNC(=O)c2sc3ccccc3c2Cl)cc1
[13]
  IC50: 4.85 µM (active)
[14]
  IC50: 2.8 µM (active)
